PubChem BioAssay (NCI)
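Protocol summary: plate cells (96-well), add compound at 5 concentrations, incubate 48 h, interpolate endpoints linearly. At the TGI there is no net growth.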

What was measured:
Experiment in all cases: NCI tumour cell line growth inhibition, 48 h
A549 NSCLC = system: A549 NSCLC
BT-549 breast = system: BT-549 breast
KM12 colon = system: KM12 colon
MDA-MB-231 breast = system: MDA-MB-231 breast
NCI-H522 lung = system: NCI-H522 lung
NCI/ADR-RES ovarian = system: NCI/ADR-RES ovarian
OVCAR-8 ovarian = system: OVCAR-8 ovarian
PC-3 prostate = system: PC-3 prostate
RPMI-8226 leukemia = system: RPMI-8226 leukemia
TK-10 renal = system: TK-10 renal
U251 CNS = system: U251 CNS
UACC-62 melanoma = system: UACC-62 melanoma
SN12C renal = system: SN12C renal

SMILES | TGI (A549 NSCLC) | TGI (BT-549 breast) | TGI (KM12 colon) | TGI (MDA-MB-231 breast) | TGI (NCI-H522 lung) | TGI (NCI/ADR-RES ovarian) | TGI (OVCAR-8 ovarian) | TGI (PC-3 prostate) | TGI (RPMI-8226 leukemia) | TGI (TK-10 renal) | TGI (U251 CNS) | TGI (UACC-62 melanoma) | TGI (SN12C renal)
O=c1c(Cc2ccccc2)c(-c2ccccc2)[nH]n1C1=NCCN1 | > 100 µM | > 100 µM | > 100 µM | > 100 µM | > 100 µM | > 100 µM | > 100 µM | > 100 µM | > 100 µM | > 100 µM | > 100 µM | > 100 µM | –
CCOC(=O)/C(=C/c1ccco1)P(=O)(OCC)OCC | > 100 µM | – | > 100 µM | – | > 100 µM | – | > 100 µM | – | > 100 µM | > 100 µM | > 100 µM | > 100 µM | > 100 µM
COc1cc(OC)c(C2c3cc4c(cc3OC(N3CCOCC3)C2C)OCO4)c(OC)c1 (stereo not drawn) | > 100 µM | – | > 100 µM | – | > 100 µM | > 100 µM | > 100 µM | > 100 µM | > 100 µM | > 100 µM | – | > 100 µM | > 100 µM
C/C(=N\Nc1nc2ccccc2s1)c1cccnn1 | > 100 µM | 60 µM | > 100 µM | 36.2 µM | 17.7 µM | 8.69 µM | 12.2 µM | > 100 µM | > 100 µM | – | > 100 µM | 20 µM | > 100 µM
CCOC(=O)c1ccc(C(=O)/C(C(=O)OC(C)(C)C)=C2\CCCN2C)n1C | > 100 µM | > 100 µM | > 100 µM | > 100 µM | – | > 100 µM | > 100 µM | > 100 µM | > 100 µM | > 100 µM | > 100 µM | > 100 µM | > 100 µM
CCN(CC)C(=S)SS(=O)(=O)c1ccc(C)cc1 | – | 68.2 µM | 30.6 µM | > 100 µM | – | > 100 µM | 40.2 µM | – | – | > 100 µM | 69.6 µM | > 100 µM | 49.7 µM
NC(=S)N=Nc1c(O)cc(Nc2ccc(Cl)cc2Cl)c2ccccc12 | > 100 µM | 97.5 µM | > 100 µM | 27.6 µM | – | > 100 µM | 93.9 µM | – | – | > 100 µM | 38.2 µM | 29.4 µM | > 100 µM
Cc1cc(C)nc(NS(=O)(=O)c2ccc(Nc3c4ccccc4nc4c(C(=O)N5CCN(CCOS(C)(=O)=O)CC5)ccc(Cl)c34)cc2)n1 | > 100 µM | – | > 100 µM | – | – | – | > 100 µM | – | > 100 µM | > 100 µM | > 100 µM | > 100 µM | > 100 µM
CCOC(=O)C(NC(=O)c1ccc(N=NN(C)C)cc1)C(C)C (stereo not drawn) | > 100 µM | – | > 100 µM | – | > 100 µM | – | > 100 µM | – | > 100 µM | > 100 µM | > 100 µM | > 100 µM | > 100 µM
CCOP(=O)(OCC)c1cc(-c2ccccc2)ccc1N | > 100 µM | > 100 µM | > 100 µM | > 100 µM | > 100 µM | > 100 µM | > 100 µM | > 100 µM | > 100 µM | > 100 µM | > 100 µM | > 100 µM | –
COC(=O)C(CCCCNC(=O)CNC(=O)OCc1ccccc1)NC(=O)C(CCCCNC(=O)CNC(=O)OCc1ccccc1)NC(=O)OCc1ccccc1 (stereo not drawn) | > 100 µM | > 100 µM | – | > 100 µM | – | – | > 100 µM | > 100 µM | 53.5 µM | > 100 µM | > 100 µM | > 100 µM | > 100 µM
COC(=O)C1=C(C(=O)OC)C2(C)CCC(=O)C1O2 (stereo not drawn) | > 10 µM | > 10 µM | > 10 µM | > 10 µM | – | > 10 µM | > 10 µM | > 10 µM | > 10 µM | > 10 µM | > 10 µM | > 10 µM | > 10 µM
CC1=C(C(=O)NNC(=O)CC#N)CC(C(=O)NNC(=O)CC#N)=C(C)N1 | > 100 µM | > 100 µM | > 100 µM | > 100 µM | – | > 100 µM | > 100 µM | – | – | > 100 µM | > 100 µM | – | > 100 µM
Cc1ccc(C(=O)c2[nH]c(Nc3cc(C)ccn3)c(C(=S)Nc3ccccc3)c2N)cc1 | > 100 µM | > 100 µM | > 100 µM | > 100 µM | > 100 µM | > 100 µM | > 100 µM | – | – | > 100 µM | > 100 µM | > 100 µM | > 100 µM
N#CC(C#N)=Cc1cccc(Oc2ccccc2)c1 | > 100 µM | – | 53.2 µM | – | 51.2 µM | – | > 31.6 µM | – | 62.5 µM | > 70.6 µM | 18.9 µM | 53.3 µM | 48.9 µM
Cc1ccc(-n2cc(-c3ccc(Cl)cc3)c3c2N=CN2NC(c4ccco4)=NC32)cc1 (stereo not drawn) | > 100 µM | 99.2 µM | – | 26 µM | 90 µM | 86.6 µM | 27.5 µM | > 100 µM | – | 28.7 µM | 20.8 µM | 31.5 µM | > 100 µM
CN1c2ccccc2C(=O)NC12CCN(CC1COc3ccccc3O1)CC2 (stereo not drawn) | > 100 µM | – | > 100 µM | – | – | > 100 µM | > 100 µM | – | > 100 µM | > 100 µM | > 100 µM | > 100 µM | –
CN(C)c1nc(=NCc2ccccn2)ss1 | > 10 µM | – | > 10 µM | > 10 µM | – | > 10 µM | > 10 µM | > 10 µM | > 10 µM | > 10 µM | > 10 µM | > 10 µM | > 10 µM
CCNC(=S)N/N=C/c1ccccn1 | 82.1 µM | 87.6 µM | > 100 µM | > 100 µM | > 100 µM | > 100 µM | > 100 µM | > 100 µM | – | > 100 µM | 75 µM | 26.1 µM | 41 µM
CNc1ccc2c(c1)Cc1ccccc1-2 | 56.2 µM | – | 99.5 µM | > 100 µM | 50.8 µM | > 100 µM | 59.6 µM | > 100 µM | > 100 µM | 93.8 µM | > 100 µM | 89.7 µM | > 100 µM
